According to ChEMBL document CHEMBL5512599, “Synthetic non-toxic anti-biofilm agents as a strategy in combating bacterial resistance” (Eur J Med Chem, 2023):
In brackets after ≈: the same amount, converted by molar mass. Blank lines part the entries; values can stand above or below the compound they belong to.

Columns and labels:
Pseudomonas aeruginosa [1] = assay: Antibacterial activity against Pseudomonas aeruginosa 27853 assessed as inhibition of bacterial growth at 3.2 microg/ml incubated for 24 hrs by absorbance based microplate reader analysis relative to control; format: functional; set-up: scale not given: the % may be the effect or the level left; settings: dose 3.2 µg/ml
Pseudomonas aeruginosa [2] = assay: Antibiofilm activity against Pseudomonas aeruginosa ATCC 27853 assessed as reduction in biofilm formation at 1/6 times of MIC after 24 hrs by crystal violet staining based assay; format: functional; set-up: scale not given: the % may be the effect or the level left
Staphylococcus aureus [3] = assay: Inhibition of Staphylococcus aureus Sortase A at 100 uM relative to control
Staphylococcus aureus [4] = assay: Antibiofilm activity against Staphylococcus aureus ATCC 25923 assessed as inhibition of biofilm formation; format: functional, organism-based
Pseudomonas aeruginosa [5] = assay: Antibiofilm activity against wild type Pseudomonas aeruginosa PAO1 assessed as inhibition of biofilm formation at 100 uM incubated for 24 hrs by crystal violet staining based analysis relative to control; format: functional; set-up: scale not given: the % may be the effect or the level left
Pseudomonas aeruginosa [6] = assay: Antibiofilm activity against Pseudomonas aeruginosa PAO1 assessed as inhibition of biofilm formation at 100 microg/ml relative to control; format: functional; set-up: scale not given: the % may be the effect or the level left; settings: dose 100 µg/ml
Streptococcus mutans = assay: Antibiofilm activity against Streptococcus mutans ATCC 25175 assessed as inhibition of biofilm formation incubated for 24 hrs by crystal violet staining based analysis; format: functional, organism-based; settings: ATCC 25175, 24 h
Pseudomonas aeruginosa [7] = assay: Anti-motility activity against Pseudomonas aeruginosa PAO1 assessed as reduction in swarming at 50 ug/ml incubated for 16 hrs by crystal violet staining analysis; format: functional; set-up: scale not given: the % may be the effect or the level left; settings: dose 50 µg/ml
Acinetobacter baumannii = assay: Antibiofilm activity against Acinetobacter baumannii ATCC 19606 assessed as inhibition of biofilm formation at 66.5 ug/ml by crystal violet assay; format: functional; set-up: scale not given: the % may be the effect or the level left; settings: dose 66.5 µg/ml
Pseudomonas aeruginosa [8] = assay: Anti-motility activity against Pseudomonas aeruginosa PAO1 assessed as reduction in swarming at 100 ug/ml incubated for 16 hrs by crystal violet staining analysis; format: functional; set-up: scale not given: the % may be the effect or the level left; settings: dose 100 µg/ml
Staphylococcus aureus [9] = assay: Antibacterial activity against methicillin-sensitive Staphylococcus aureus ATCC 29213 assessed as reduction in bacterial growth incubated for 18 hrs by mueller hinton broth dilution method; format: functional, organism-based; settings: ATCC 29213, 18 h
Staphylococcus aureus [10] = assay: Antibiofilm activity against Methicillin-sensitive Staphylococcus aureus ATCC 29213 assessed as reduction in biofilm formation at 200 uM incubated for 24 hrs by crystal violet staining based analysis relative to control; format: functional; set-up: scale not given: the % may be the effect or the level left
Micrococcus luteus = assay: Antibacterial activity against Micrococcus luteus MTCC 2470 assessed as inhibition of bacterial growth incubated for 24 hrs by agar well diffusion method; format: functional
Staphylococcus aureus [11] = assay: Antibacterial activity against Staphylococcus aureus MTCC 96 assessed as reduction in microbial growth after 24 hrs by CLSI based microdilution method; format: functional
Staphylococcus aureus [12] = assay: Antibacterial activity against Staphylococcus aureus MLS16 MTCC 2940 assessed as bacterial growth inhibition measured after 24 hrs by microdilution assay; format: functional
Pseudomonas aeruginosa [13] = assay: Antibiofilm activity against Pseudomonas aeruginosa PAO1 assessed as reduction in biofilm formation at 25 uM relative to control; format: functional; set-up: scale not given: the % may be the effect or the level left
Pseudomonas aeruginosa [14] = assay: Antibiofilm activity against Pseudomonas aeruginosa PAO1 assessed as reduction in biofilm formation at 50 uM relative to control; format: functional; set-up: scale not given: the % may be the effect or the level left
Pseudomonas aeruginosa [15] = assay: Antibiofilm activity against Pseudomonas aeruginosa PAO1 assessed as reduction in biofilm formation at 12.5 uM relative to control; format: functional; set-up: scale not given: the % may be the effect or the level left
[16] = Inhibition of quorum sensing system in Pseudomonas aeruginosa PAO1 assessed as inhibition of pyocyanin production at 12.5 uM incubated for 24 hrs by absorbance based assay relative to control
[17] = Inhibition of quorum sensing system in Pseudomonas aeruginosa PA14 assessed as inhibition of pyocyanin production
Pseudomonas aeruginosa [18] = assay: Antibiofilm activity against Pseudomonas aeruginosa PAO1 assessed as inhibition of biofilm formation incubated for 24 hrs by crystal violet staining based assay; format: functional, organism-based; settings: PAO1, 24 h
[19] = test system: Staphylococcus epidermidis; assay: Antimicrobial activity against Staphylococcus epidermidis ATCC 35984 assessed as reduction in microbial growth after 24 hrs by CLSI based broth microdilution method; format: functional
[20] = test system: Staphylococcus epidermidis; assay: Antibiofilm activity against Staphylococcus epidermidis clinical isolate 526/12 assessed as inhibition of biofilm formation measured after 24 hrs by confocal laser scanning microscopy analysis; format: functional, organism-based
[21] = test system: Staphylococcus epidermidis; assay: Antibacterial activity against Staphylococcus epidermidis clinical isolate 517/12 assessed as reduction in bacterial growth measured after 24 hrs by CLSI based broth micro-dilution method; format: functional
[22] = test system: Staphylococcus epidermidis; assay: Antibacterial activity against Staphylococcus epidermidis clinical isolate 531/12 assessed as reduction in bacterial growth measured after 24 hrs by CLSI based broth micro-dilution method; format: functional
[23] = test system: Staphylococcus epidermidis; assay: Antimicrobial activity against Staphylococcus epidermidis ATCC 12228 assessed as reduction in microbial growth after 24 hrs by CLSI based broth microdilution method; format: functional
[24] = test system: Staphylococcus epidermidis; assay: Antibiofilm activity against Staphylococcus epidermidis clinical isolate 523/12 assessed as inhibition of biofilm formation measured after 24 hrs by confocal laser scanning microscopy analysis; format: functional, organism-based
[25] = test system: Staphylococcus epidermidis; assay: Antibacterial activity against Staphylococcus epidermidis clinical isolate 532/12 assessed as reduction in bacterial growth measured after 24 hrs by CLSI based broth micro-dilution method; format: functional
[26] = test system: Staphylococcus epidermidis; assay: Antibiofilm activity against Staphylococcus epidermidis clinical isolate 533/12 assessed as inhibition of biofilm formation measured after 24 hrs by confocal laser scanning microscopy analysis; format: functional, organism-based
[27] = test system: Staphylococcus epidermidis; assay: Antibiofilm activity against Staphylococcus epidermidis clinical isolate 532/12 assessed as inhibition of biofilm formation measured after 24 hrs by confocal laser scanning microscopy analysis; format: functional, organism-based
[28] = test system: Staphylococcus epidermidis; assay: Antibiofilm activity against Staphylococcus epidermidis ATCC 12228 assessed as inhibition of biofilm formation measured after 24 hrs by confocal laser scanning microscopy analysis; format: functional, organism-based; settings: ATCC 12228, 24 h
[29] = test system: Staphylococcus epidermidis; assay: Antibacterial activity against Staphylococcus epidermidis clinical isolate 528/12 assessed as reduction in bacterial growth measured after 24 hrs by CLSI based broth micro-dilution method; format: functional
[30] = test system: Staphylococcus epidermidis; assay: Antibiofilm activity against Staphylococcus epidermidis clinical isolate 519/12 assessed as inhibition of biofilm formation measured after 24 hrs by confocal laser scanning microscopy analysis; format: functional, organism-based
[31] = test system: Staphylococcus epidermidis; assay: Antibiofilm activity against Staphylococcus epidermidis clinical isolate 528/12 assessed as inhibition of biofilm formation measured after 24 hrs by confocal laser scanning microscopy analysis; format: functional, organism-based
[32] = test system: Staphylococcus epidermidis; assay: Antibacterial activity against Staphylococcus epidermidis clinical isolate 533/12 assessed as reduction in bacterial growth measured after 24 hrs by CLSI based broth micro-dilution method; format: functional
[33] = test system: Staphylococcus epidermidis; assay: Antibiofilm activity against Staphylococcus epidermidis clinical isolate 517/12 assessed as inhibition of biofilm formation measured after 24 hrs by confocal laser scanning microscopy analysis; format: functional, organism-based
[34] = test system: Staphylococcus epidermidis; assay: Antibiofilm activity against Staphylococcus epidermidis clinical isolate 531/12 assessed as inhibition of biofilm formation measured after 24 hrs by confocal laser scanning microscopy analysis; format: functional, organism-based
Staphylococcus aureus [35] = assay: Antibiofilm activity against Staphylococcus aureus ATCC 6538 assessed as inhibition of biofilm formation incubated for 24 hrs by crystal violet staining based analysis; format: functional, organism-based; settings: ATCC 6538, 24 h

inhibition (Staphylococcus aureus [3]): 47.8%
IC50 (Staphylococcus aureus [4]): 12 µM
Compound: CC(C)(C)OC(=O)NCCn1cc(-c2nc(-c3c[nH]c4ncccc34)cs2)c2ccccc21

MIC (Micrococcus luteus): 18.8 µM (≈ 7.15 µg/mL)
MIC (Staphylococcus aureus [11]): 9.37 µM
MIC (Staphylococcus aureus [12]): 9.37 µM (≈ 3.57 µg/mL)
Compound: CCCCCCCCc1ccc(C(F)(F)F)nc1OCc1cn(C#N)nn1

IC50 [17]: 0.28 µM
IC50 (Pseudomonas aeruginosa [18]): 0.26 µM
Compound: Cc1cccc(/C=C2/C(c3cccc(C)c3)=CC(=O)N2Cc2ccccc2)c1

MIC [19]: 4 µg/mL
IC50 [20]: 4.95 µg/mL (≈ 17.2 µM)
MIC [21]: 8 µg/mL (≈ 27.8 µM)
MIC [22]: 4 µg/mL (≈ 13.9 µM)
MIC [23]: 4 µg/mL
IC50 [24]: 3.14 µg/mL (≈ 10.9 µM)
MIC [25]: 4 µg/mL (≈ 13.9 µM)
IC50 [26]: 2.88 µg/mL (≈ 10 µM)
IC50 [27]: 2.21 µg/mL (≈ 7.68 µM)
IC50 [28]: 0.35 µg/mL (≈ 1.22 µM)
MIC [29]: 8 µg/mL (≈ 27.8 µM)
IC50 [30]: 2.5 µg/mL (≈ 8.69 µM)
IC50 [31]: 1.11 µg/mL (≈ 3.86 µM)
MIC [32]: 4 µg/mL (≈ 13.9 µM)
IC50 [33]: 0.66 µg/mL (≈ 2.29 µM)
IC50 [34]: 1.13 µg/mL (≈ 3.93 µM)
Compound: Fc1ccc(NC(=S)Nc2nccs2)cc1Cl

IC50 (Staphylococcus aureus [35]): 4.2 µM
Compound: CCOC(=O)c1nn(-c2ccc(Cl)cc2)cc1C(=O)c1cc2cc(CN3CCN(Cc4ccc5oc(C(=O)c6cn(-c7ccc(Cl)cc7)nc6C(=O)OCC)cc5c4)CC3)ccc2o1

Second part, the compound before the results:

Compound: CC[C@H]1OC(=O)[C@H](C)[C@@H](O[C@H]2C[C@@](C)(OC)[C@@H](O)[C@H](C)O2)[C@H](C)[C@@H](O[C@@H]2O[C@H](C)C[C@H](N(C)C)[C@H]2O)[C@](C)(OC)C[C@@H](C)C(=O)[C@H](C)[C@@H](O)[C@]1(C)O [CLARITHROMYCIN]
Activity (Pseudomonas aeruginosa [1]): 29.11%

Compound: COc1ccc(CC(=O)OC2OC(=O)C(Br)=C2Br)cc1OC (stereo not drawn)
Activity (Pseudomonas aeruginosa [2]): 63%

Compound: Nc1nc2ccc(/C=C/c3ccccc3)cc2[nH]1
Activity (Pseudomonas aeruginosa [5]): 56%

Compound: COc1ccccc1/C=C/C(=O)c1ccccc1O
Activity (Pseudomonas aeruginosa [6]): 57%

Compound: CCOC(=O)c1nn(-c2ccc([N+](=O)[O-])cc2)cc1C(=O)c1cc2cc(CN3CCN(Cc4ccc5oc(C(=O)c6cn(-c7ccc([N+](=O)[O-])cc7)nc6C(=O)OCC)cc5c4)CC3)ccc2o1
IC50 (Streptococcus mutans): 5.8 µM

Compound: O=C(/C=C/c1ccc(C(F)(F)F)cc1)c1ccccc1O
Activity (Pseudomonas aeruginosa [7]): 21.91%
Activity (Acinetobacter baumannii): 56.8%
Activity (Pseudomonas aeruginosa [8]): 31.74%

Compound: CCCCCCCCCC(=O)NCCCc1cnc(N)nc1
IC50 (Staphylococcus aureus [9]): 67 µM
Activity (Staphylococcus aureus [10]): 80%

Compound: CCCCCCSSc1nc2ccccc2c(=O)[nH]1
Activity (Pseudomonas aeruginosa [13]): 43%
Activity (Pseudomonas aeruginosa [14]): 46%
Activity (Pseudomonas aeruginosa [15]): 38%
inhibition [16]: 94%
